Literature values, collected in patent publication US20240199640A1, “NEGATIVE ALLOSTERIC MODULATORS OF METABOTROPIC GLUTAMATE RECEPTOR 2” (priority 2021, published 2024).

How the values were obtained:
[1] = conditioned fear stress; cited from earlier work
[2] = system: social isolation-reared mice; conditions: cited from earlier work
[3] = treatment for 7 days; cited from earlier work
mouse = conditions: normal animals; cited from earlier work
mice = conditions: treated mice; cited from earlier work
rat = conditions: normal animals; cited from earlier work
[4] = system: olfactory bulbectomized rats; conditions: repeated administration for 14 days; cited from earlier work

Compound	freezing behavior [1]	increased immobility in the FST [2]	number of escape failures [3]	Antidepressant-like effects in mouse tail-suspension test (mouse)	marble-burying behavior (mice)	spontaneous locomotor activity (mice)	Antidepressant-like effects in rat forced swim test (rat)	hyperactivity in the open field test [4]	learning deficit in the passive avoidance test [4]
CN1C(=O)CN=C(c2ccccc2)c2cc(Cl)ccc21 [diazepam]	significantly decreased								
N[C@]1(C(=O)O)[C@H]2[C@@H](C[C@H]1OCc1ccc(Cl)c(Cl)c1)[C@]2(F)C(=O)O [MGS0039]	significantly decreased	reversed	significantly reduced	Antidepressant-like effects	reduced	no significant change	Antidepressant-like effects	attenuated	attenuated
